Broadly, the viability, T/C is the result in the treated group divided by that in the control group, in per cent.
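Also: spheroids exposed to compounds for one week before readout; percent viability relative to DMSO vehicle wells taken as 100%.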

The test system of the first assay is 317291-083-R-J1-PDC complex spheroids, viability. Briefly: Anticancer human tumor 317291-083-R-J1-PDC patient-derived soft tissue sarcoma cell line growth inhibition [GQUAD]. Conditions: second compound 0.0316 µM; first compound 3.16 µM; active compounds read low. Put shortly:
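Multi-cell-type spheroids of tumor cells with HUVEC and mesenchymal stem cells, treated with drug combinations. Concentrations descend in half-log steps from near clinical Cmax, or from 10 microM where Cmax is unknown; viability read-out.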
In the case of `C=CC(=O)N1CCN(c2nc(=O)n(-c3c(C)ccnc3C(C)C)c3nc(-c4c(O)cccc4F)c(F)cc23)C(C)C1` (stereo unspecified) + Cc1cnc(CNC(=O)c2c(=O)c3ccc(N4CCCN(C)CC4)nc3n3c2sc2ccccc23)cn1, the viability, T/C is 86.2%.

On to `COc1cc(C2c3cc4c(cc3C(OC3OC5COC(C)OC5C(O)C3O)C3COC(=O)C23)OCO4)cc(OC)c1O` (stereo unspecified) + Cc1[nH]c2ccc(F)cc2c1-c1nc2c3cccnc3c3ncccc3c2[nH]1, for which the viability, T/C was 17.9%.

Take `O=C(NO)c1cnc(N2CCN(S(=O)(=O)c3ccc4ccccc4c3)CC2)nc1` + Cc1cnc(CNC(=O)c2c(=O)c3ccc(N4CCCN(C)CC4)nc3n3c2sc2ccccc23)cn1: the viability, T/C is 0.05%.

The assay is the same for the next values; noted with them: second compound 0.0316 µM; first compound 10 µM; active compounds read low.
Take `CC(C)(O)C1CCC(Nc2ccc3ncc(-c4cccc(C(F)(F)F)c4)n3n2)CC1` (stereo unspecified) + CN(C)c1ccc(Nc2c3ccc(NC(=O)CCN4CCCC4)cc3nc3cc(NC(=O)CCN4CCCC4)ccc23)cc1: the viability, T/C was 0.94%.

On to `C=CC(=O)N1CCN(c2nc(=O)n(-c3c(C)ccnc3C(C)C)c3nc(-c4c(O)cccc4F)c(F)cc23)C(C)C1` (stereo unspecified) + CN(C)c1ccc(Nc2c3ccc(NC(=O)CCN4CCCC4)cc3nc3cc(NC(=O)CCN4CCCC4)ccc23)cc1, for which the viability, T/C was 65.2%.

Take `C=CC(=O)N1CCN(c2nc(=O)n(-c3c(C)ccnc3C(C)C)c3nc(-c4c(O)cccc4F)c(F)cc23)C(C)C1` (stereo unspecified) + Cc1cnc(CNC(=O)c2c(=O)c3ccc(N4CCCN(C)CC4)nc3n3c2sc2ccccc23)cn1: the viability, T/C was 65%.

On to `COc1cc(C2c3cc4c(cc3C(OC3OC5COC(C)OC5C(O)C3O)C3COC(=O)C23)OCO4)cc(OC)c1O` (stereo unspecified) + Cc1[nH]c2ccc(F)cc2c1-c1nc2c3cccnc3c3ncccc3c2[nH]1, for which the viability, T/C was 16.5%.

With `O=C(NO)c1cnc(N2CCN(S(=O)(=O)c3ccc4ccccc4c3)CC2)nc1` + Cc1cnc(CNC(=O)c2c(=O)c3ccc(N4CCCN(C)CC4)nc3n3c2sc2ccccc23)cn1, the viability, T/C was 0.08%.

Staying with this assay, now noted: second compound 0.1 µM; first compound 0.0316 µM; active compounds read low.
`CC(C)(O)C1CCC(Nc2ccc3ncc(-c4cccc(C(F)(F)F)c4)n3n2)CC1` (stereo unspecified) + CN(C)c1ccc(Nc2c3ccc(NC(=O)CCN4CCCC4)cc3nc3cc(NC(=O)CCN4CCCC4)ccc23)cc1: the viability, T/C is 97.5%.

For `C=CC(=O)N1CCN(c2nc(=O)n(-c3c(C)ccnc3C(C)C)c3nc(-c4c(O)cccc4F)c(F)cc23)C(C)C1` (stereo unspecified) + CN(C)c1ccc(Nc2c3ccc(NC(=O)CCN4CCCC4)cc3nc3cc(NC(=O)CCN4CCCC4)ccc23)cc1, the viability, T/C is 115%.

`C=CC(=O)N1CCN(c2nc(=O)n(-c3c(C)ccnc3C(C)C)c3nc(-c4c(O)cccc4F)c(F)cc23)C(C)C1` (stereo unspecified) + Cc1cnc(CNC(=O)c2c(=O)c3ccc(N4CCCN(C)CC4)nc3n3c2sc2ccccc23)cn1: the viability, T/C is 79.1%.

With `COc1cc(C2c3cc4c(cc3C(OC3OC5COC(C)OC5C(O)C3O)C3COC(=O)C23)OCO4)cc(OC)c1O` (stereo unspecified) + Cc1[nH]c2ccc(F)cc2c1-c1nc2c3cccnc3c3ncccc3c2[nH]1, the viability, T/C was 96.2%.

As to `O=C(NO)c1cnc(N2CCN(S(=O)(=O)c3ccc4ccccc4c3)CC2)nc1` + Cc1cnc(CNC(=O)c2c(=O)c3ccc(N4CCCN(C)CC4)nc3n3c2sc2ccccc23)cn1, the viability, T/C was 47.2%.

Staying with this assay, now noted: second compound 0.1 µM; first compound 0.1 µM; active compounds read low.
As to `CC(C)(O)C1CCC(Nc2ccc3ncc(-c4cccc(C(F)(F)F)c4)n3n2)CC1` (stereo unspecified) + CN(C)c1ccc(Nc2c3ccc(NC(=O)CCN4CCCC4)cc3nc3cc(NC(=O)CCN4CCCC4)ccc23)cc1, the viability, T/C is 92.2%.

Consider `C=CC(=O)N1CCN(c2nc(=O)n(-c3c(C)ccnc3C(C)C)c3nc(-c4c(O)cccc4F)c(F)cc23)C(C)C1` (stereo unspecified) + CN(C)c1ccc(Nc2c3ccc(NC(=O)CCN4CCCC4)cc3nc3cc(NC(=O)CCN4CCCC4)ccc23)cc1, for which the viability, T/C was 100%.

For `C=CC(=O)N1CCN(c2nc(=O)n(-c3c(C)ccnc3C(C)C)c3nc(-c4c(O)cccc4F)c(F)cc23)C(C)C1` (stereo unspecified) + Cc1cnc(CNC(=O)c2c(=O)c3ccc(N4CCCN(C)CC4)nc3n3c2sc2ccccc23)cn1, the viability, T/C was 88.6%.

As to `COc1cc(C2c3cc4c(cc3C(OC3OC5COC(C)OC5C(O)C3O)C3COC(=O)C23)OCO4)cc(OC)c1O` (stereo unspecified) + Cc1[nH]c2ccc(F)cc2c1-c1nc2c3cccnc3c3ncccc3c2[nH]1, the viability, T/C is 102%.

On to `O=C(NO)c1cnc(N2CCN(S(=O)(=O)c3ccc4ccccc4c3)CC2)nc1` + Cc1cnc(CNC(=O)c2c(=O)c3ccc(N4CCCN(C)CC4)nc3n3c2sc2ccccc23)cn1, for which the viability, T/C was 41.8%.

The same assay, now with this note: second compound 0.1 µM; first compound 0.316 µM; active compounds read low.
As for `CC(C)(O)C1CCC(Nc2ccc3ncc(-c4cccc(C(F)(F)F)c4)n3n2)CC1` (stereo unspecified) + CN(C)c1ccc(Nc2c3ccc(NC(=O)CCN4CCCC4)cc3nc3cc(NC(=O)CCN4CCCC4)ccc23)cc1, the viability, T/C was 102%.

With `C=CC(=O)N1CCN(c2nc(=O)n(-c3c(C)ccnc3C(C)C)c3nc(-c4c(O)cccc4F)c(F)cc23)C(C)C1` (stereo unspecified) + CN(C)c1ccc(Nc2c3ccc(NC(=O)CCN4CCCC4)cc3nc3cc(NC(=O)CCN4CCCC4)ccc23)cc1, the viability, T/C was 99.1%.

For `C=CC(=O)N1CCN(c2nc(=O)n(-c3c(C)ccnc3C(C)C)c3nc(-c4c(O)cccc4F)c(F)cc23)C(C)C1` (stereo unspecified) + Cc1cnc(CNC(=O)c2c(=O)c3ccc(N4CCCN(C)CC4)nc3n3c2sc2ccccc23)cn1, the viability, T/C is 91%.

With `COc1cc(C2c3cc4c(cc3C(OC3OC5COC(C)OC5C(O)C3O)C3COC(=O)C23)OCO4)cc(OC)c1O` (stereo unspecified) + Cc1[nH]c2ccc(F)cc2c1-c1nc2c3cccnc3c3ncccc3c2[nH]1, the viability, T/C was 43.5%.

Consider `O=C(NO)c1cnc(N2CCN(S(=O)(=O)c3ccc4ccccc4c3)CC2)nc1` + Cc1cnc(CNC(=O)c2c(=O)c3ccc(N4CCCN(C)CC4)nc3n3c2sc2ccccc23)cn1, for which the viability, T/C is 6.03%.

The assay is the same for the next values; noted with them: second compound 0.1 µM; first compound 1 µM; active compounds read low.
Consider `CC(C)(O)C1CCC(Nc2ccc3ncc(-c4cccc(C(F)(F)F)c4)n3n2)CC1` (stereo unspecified) + CN(C)c1ccc(Nc2c3ccc(NC(=O)CCN4CCCC4)cc3nc3cc(NC(=O)CCN4CCCC4)ccc23)cc1, for which the viability, T/C was 27.6%.

Consider `C=CC(=O)N1CCN(c2nc(=O)n(-c3c(C)ccnc3C(C)C)c3nc(-c4c(O)cccc4F)c(F)cc23)C(C)C1` (stereo unspecified) + CN(C)c1ccc(Nc2c3ccc(NC(=O)CCN4CCCC4)cc3nc3cc(NC(=O)CCN4CCCC4)ccc23)cc1, for which the viability, T/C was 107%.

Consider `C=CC(=O)N1CCN(c2nc(=O)n(-c3c(C)ccnc3C(C)C)c3nc(-c4c(O)cccc4F)c(F)cc23)C(C)C1` (stereo unspecified) + Cc1cnc(CNC(=O)c2c(=O)c3ccc(N4CCCN(C)CC4)nc3n3c2sc2ccccc23)cn1, for which the viability, T/C was 95.8%.

The values above are taken from PubChem BioAssay AID2060497 (Molecular Pharmacology Branch, DTP, NCI, 2025).
